Among the data in PubChem BioAssay (NCI) are GI50 and TGI values, retold here.

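Five concentrations, 48 hours, 96-well plates. GI50 is the concentration that inhibits growth by half. TGI: total growth inhibition.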

Test systems include U251 CNS; SNB-75 CNS; RPMI-8226 leukemia; HOP-62 NSCLC; HOP-92 NSCLC; NCI-H23 lung; NCI-H460 lung; SK-OV-3 ovarian; RXF 393 renal; MOLT-4 leukemia.
What all share (test): NCI anticancer screen, dose series, 48 h

Turning to `COc1ccc(C2CC(n3nnnc3-c3ccccc3)=NN2)cc1` (stereo not given), the GI50 is 9.88 µM in the test on U251 CNS; 14.4 µM in the test with SNB-75 CNS; 2.88 µM in the test on RPMI-8226 leukemia; 12.8 µM in the test on HOP-62 NSCLC; 11.6 µM in the test with HOP-92 NSCLC; 10.8 µM in the test on NCI-H23 lung. Further, the GI50 was 2.84 µM in the test with NCI-H460 lung, 22.4 µM with SK-OV-3 ovarian, 21.1 µM in the test on RXF 393 renal and 5.99 µM with MOLT-4 leukemia. For the same compound, the TGI in the test with U251 CNS is 35.9 µM; with SNB-75 CNS it was 54 µM; in the test on RPMI-8226 leukemia it was 53.5 µM; in the test with HOP-62 NSCLC, 45.8 µM; with HOP-92 NSCLC, 42.6 µM; with NCI-H23 lung, 41.7 µM. Further, the TGI in the test on NCI-H460 lung came out at 13.7 µM; in the test on SK-OV-3 ovarian, 66.1 µM; in the test with RXF 393 renal it was 95.6 µM; in the test with MOLT-4 leukemia it was 42.6 µM.
As for `Nc1nc(CCC(=O)Nc2cccc(C(F)(F)F)c2)cc(-c2ccc3ccccc3c2)n1`, the TGI in the test on U251 CNS, in the test with SNB-75 CNS, in the test on RPMI-8226 leukemia, with HOP-62 NSCLC, in the test with HOP-92 NSCLC and in the test with NCI-H23 lung was over 100 µM in each case. Moreover, the TGI in the test on NCI-H460 lung, in the test on SK-OV-3 ovarian, in the test on RXF 393 renal and in the test with MOLT-4 leukemia was over 100 µM in each case.
For `O=c1[nH]c(=O)n(C2OC3COC2C3O)cc1F` (stereo not given), the TGI in the test with U251 CNS, with SNB-75 CNS, in the test on RPMI-8226 leukemia, with HOP-62 NSCLC, in the test with HOP-92 NSCLC and in the test with NCI-H23 lung was over 100 µM each time. Moreover, the TGI in the test with NCI-H460 lung, in the test on SK-OV-3 ovarian, in the test on RXF 393 renal and with MOLT-4 leukemia was over 100 µM throughout.
In the case of `CC1CCN(CC(=O)N2c3ccccc3Sc3cc4ccccc4cc32)CC1`, the TGI in the test on U251 CNS, in the test on SNB-75 CNS, with RPMI-8226 leukemia, in the test on HOP-62 NSCLC, in the test on HOP-92 NSCLC and in the test on NCI-H23 lung was over 100 µM each time. The TGI in the test on NCI-H460 lung, in the test with SK-OV-3 ovarian, in the test with RXF 393 renal and in the test on MOLT-4 leukemia was over 100 µM each time.
As for `FCc1ncc(-c2ccc(C(F)(F)F)cc2)c(NC2CCCCCC2)n1`, the GI50 in the test on U251 CNS was over 10 µM; in the test on SNB-75 CNS it was over 10 µM; with RPMI-8226 leukemia, over 10 µM; in the test on HOP-62 NSCLC, over 10 µM; with HOP-92 NSCLC, 5.29 µM; in the test on NCI-H23 lung it was over 10 µM. Further, the GI50 in the test on NCI-H460 lung, in the test on SK-OV-3 ovarian, in the test with RXF 393 renal and with MOLT-4 leukemia was over 10 µM each time. Besides, the TGI in the test on U251 CNS, in the test with SNB-75 CNS, in the test on RPMI-8226 leukemia, in the test with HOP-62 NSCLC, with HOP-92 NSCLC and in the test on NCI-H23 lung was over 10 µM in each case. The TGI in the test on NCI-H460 lung, in the test on SK-OV-3 ovarian, in the test on RXF 393 renal and with MOLT-4 leukemia was over 10 µM each time.
Turning to `O=[N+]([O-])c1ccc2c(c1)[O][Sn][O]2`, the GI50 is over 150 µg/mL with U251 CNS; over 150 µg/mL with SNB-75 CNS; 17.8 µg/mL with RPMI-8226 leukemia; over 150 µg/mL in the test with HOP-62 NSCLC; 45.3 µg/mL in the test with HOP-92 NSCLC; 15.3 µg/mL in the test with NCI-H23 lung. Also, the GI50 in the test on NCI-H460 lung is 69.5 µg/mL; with SK-OV-3 ovarian, over 150 µg/mL; with RXF 393 renal, 8.22 µg/mL; with MOLT-4 leukemia it was 33 µg/mL. The TGI is over 150 µg/mL with U251 CNS; over 150 µg/mL in the test on SNB-75 CNS; over 150 µg/mL in the test with RPMI-8226 leukemia; over 150 µg/mL in the test on HOP-62 NSCLC; 88.3 µg/mL with HOP-92 NSCLC; 143 µg/mL with NCI-H23 lung. The TGI in the test on NCI-H460 lung, in the test with SK-OV-3 ovarian, in the test on RXF 393 renal and with MOLT-4 leukemia was over 150 µg/mL throughout.
`CN1C(=O)C(Cl)(C(Cl)(Cl)S(=O)(=O)O)C(=O)c2ccccc21` (stereo not given): the TGI in the test on U251 CNS, in the test on SNB-75 CNS, in the test on RPMI-8226 leukemia, in the test with HOP-62 NSCLC, in the test on HOP-92 NSCLC and with NCI-H23 lung was over 100 µM each time. Besides, the TGI in the test with NCI-H460 lung, in the test with SK-OV-3 ovarian, in the test on RXF 393 renal and with MOLT-4 leukemia was over 100 µM each time.
With `O=C1CC(=O)OC(c2ccc([N+](=O)[O-])cc2)O1`, the GI50 with U251 CNS was 1.61 µM; in the test with SNB-75 CNS it was 1.44 µM; in the test on RPMI-8226 leukemia, 2.51 µM; in the test on HOP-62 NSCLC, 2.47 µM; in the test on HOP-92 NSCLC, 0.23 µM; in the test on NCI-H23 lung, 2.15 µM. Moreover, the GI50 in the test on NCI-H460 lung was 2.4 µM; in the test on SK-OV-3 ovarian, 7.05 µM; in the test on RXF 393 renal, 1.77 µM; in the test with MOLT-4 leukemia, 2.66 µM. Further, the TGI with U251 CNS stood at 3.11 µM; in the test on SNB-75 CNS, 3.12 µM; with RPMI-8226 leukemia it was 7.33 µM; with HOP-62 NSCLC, 6.79 µM; in the test on HOP-92 NSCLC, 3.71 µM; in the test with NCI-H23 lung, 5.2 µM. For the same compound, the TGI was 5.9 µM with NCI-H460 lung, 19.2 µM in the test on SK-OV-3 ovarian, 3.23 µM in the test on RXF 393 renal and 8.41 µM in the test with MOLT-4 leukemia.
As to `COC(=O)CCC1=C(C)/C(=C/c2[nH]c(-c3ccc[nH]3)cc2OC)N=C1C`, the GI50 is 0.343 µM in the test on U251 CNS; 0.382 µM in the test on SNB-75 CNS; 0.272 µM with RPMI-8226 leukemia; 0.454 µM in the test on HOP-62 NSCLC; 0.191 µM with HOP-92 NSCLC; 0.587 µM with NCI-H23 lung. Also, the GI50 was 0.441 µM with NCI-H460 lung, 3.93 µM in the test on SK-OV-3 ovarian, 0.352 µM with RXF 393 renal and 0.368 µM with MOLT-4 leukemia. In addition, the TGI in the test on U251 CNS worked out at 2.43 µM; in the test on SNB-75 CNS, 3.18 µM; in the test with RPMI-8226 leukemia, 1.38 µM; in the test on HOP-62 NSCLC, 1.53 µM; with HOP-92 NSCLC it was 0.571 µM; with NCI-H23 lung, 3.84 µM. Also, the TGI in the test with NCI-H460 lung was 4.88 µM; in the test on SK-OV-3 ovarian it was 11.6 µM; in the test on RXF 393 renal, 2.07 µM; with MOLT-4 leukemia, 7.08 µM.
